pIC50: −log10 of the molar value.
These compounds were tested against T1, P2X purinoceptor 7 (Homo sapiens, UniProt Q99572) (assay: SUPPLEMENTARY: Inhibition of human P2X7 receptor assessed as inhibition of ethidium bromide accumulation. Same assay as CHEMBL1103860).
T1 sequence (Q99572 whole entry): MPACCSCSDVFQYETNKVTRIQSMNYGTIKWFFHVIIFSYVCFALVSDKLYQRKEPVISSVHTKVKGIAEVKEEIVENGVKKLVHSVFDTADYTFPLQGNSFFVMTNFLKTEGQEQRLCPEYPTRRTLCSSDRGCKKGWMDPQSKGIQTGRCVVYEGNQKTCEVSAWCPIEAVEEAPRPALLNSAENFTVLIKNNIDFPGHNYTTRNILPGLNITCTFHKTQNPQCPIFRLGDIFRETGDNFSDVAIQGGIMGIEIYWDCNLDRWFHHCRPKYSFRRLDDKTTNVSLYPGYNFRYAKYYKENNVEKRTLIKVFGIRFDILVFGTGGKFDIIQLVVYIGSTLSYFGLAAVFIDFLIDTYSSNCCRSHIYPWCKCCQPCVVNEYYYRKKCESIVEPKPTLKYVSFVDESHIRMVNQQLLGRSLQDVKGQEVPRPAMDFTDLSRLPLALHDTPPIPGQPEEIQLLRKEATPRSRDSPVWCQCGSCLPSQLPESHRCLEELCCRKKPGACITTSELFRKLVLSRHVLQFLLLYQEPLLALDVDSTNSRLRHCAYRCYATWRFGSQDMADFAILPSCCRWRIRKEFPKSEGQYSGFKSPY

First: Cc1noc(C)c1CC(=O)NCc1cccc(C(F)(F)F)c1C
Second: Cc1noc(C)c1CC(=O)NCc1cccc(C(F)(F)F)c1F
The pIC50 of the first is 0.50 log units higher: 8.00 for the first, 7.50 for the second.

Cc1n[nH]c(C)c1CC(=O)NCc1cc(Cl)ccc1Cl and Cc1n[nH]c(C)c1CC(=O)NCc1cc(F)ccc1Cl are within 0.2 log units of each other in pIC50: 6.50 for the first, 6.40 for the second.

First: CC(C)c1noc(C(C)C)c1CC(=O)NCc1ccc(F)cc1Cl
Second: CCc1noc(CC)c1CC(=O)NCc1ccc(F)cc1Cl
The pIC50 of the first is 0.60 log units lower: 6.80 for the first, 7.40 for the second.

First: Cc1cccc(Cl)c1CNC(=O)Cc1c(C)n[nH]c1C
Second: Cc1n[nH]c(C)c1CC(=O)NCc1c(Cl)cccc1Cl
The pIC50 of the first is 0.30 log units higher: 7.80 for the first, 7.50 for the second. The first is the more potent here.

First: Cc1n[nH]c(C)c1CC(=O)N[C@H]1CCCc2ccccc21
Second: Cc1ccccc1CNC(=O)Cc1c(C)n[nH]c1C
The pIC50 of the first is 0.20 log units higher: 7.00 for the first, 6.80 for the second. The first is the more potent here.

Compared with Cc1n[nH]c(C)c1CC(=O)NCc1cc(Cl)cc(Cl)c1, Cc1n[nH]c(C)c1CC(=O)NCc1ccc(Cl)c(Cl)c1 is 0.70 log units higher in pIC50: 6.00 for the first, 6.70 for the second.

First: Cc1cc(F)ccc1CNC(=O)Cc1c(C)noc1C
Second: Cc1ccc(CNC(=O)Cc2c(C)noc2C)c(C)c1
The pIC50 of the first is 0.40 log units higher: 7.00 for the first, 6.60 for the second.

Compared with Cc1noc(C)c1CC(=O)NCc1ccc(F)c(F)c1F, Cc1ccc(CNC(=O)Cc2c(C)noc2C)c(F)c1F is 0.70 log units lower in pIC50: 6.80 for the first, 6.10 for the second.

First: Cc1noc(C)c1CC(=O)NCc1ccccc1Cl
Second: Cc1noc(C)c1CC(=O)NCc1ccccc1Br
The pIC50 of the first is 0.70 log units higher: 7.00 for the first, 6.30 for the second.

Going from Cc1noc(C)c1CC(=O)NCc1c(F)cccc1Cl to Cc1noc(C)c1CC(=O)NCc1c(Cl)cccc1Cl, the pIC50 rises from 6.40 to 7.20 (0.80 log units).

Cc1n[nH]c(C)c1CC(=O)NCc1ccc(F)c(F)c1F and Cc1n[nH]c(C)c1CC(=O)NCc1ccc(Br)cc1F are within 0.2 log units of each other in pIC50: 7.20 for the first, 7.30 for the second.

First: Cc1noc(C)c1CC(=O)NCc1ccc(F)cc1C(F)(F)F
Second: Cc1noc(C)c1CC(=O)NCc1ccc(C(F)(F)F)c(F)c1
The pIC50 of the first is 0.30 log units higher: 6.70 for the first, 6.40 for the second. The first is the more potent here.

Going from Cc1noc(C)c1CC(=O)NCc1cccc(Cl)c1Cl to Cc1noc(C)c1CC(=O)NCc1cccc(Cl)c1F, the pIC50 falls from 7.50 to 6.70 (0.80 log units).

Cc1noc(C)c1CC(=O)NCc1ccc(F)c(F)c1Cl and Cc1noc(C)c1CC(=O)NCc1ccc(F)c(Cl)c1F are within 0.2 log units of each other in pIC50: 7.50 for the first, 7.40 for the second.

Going from Cc1[nH]nc(C(C)(C)C)c1CC(=O)NCc1ccc(F)cc1Cl to Cc1n[nH]c(C)c1CC(=O)NCc1cccc(Cl)c1C, the pIC50 rises from 6.80 to 8.30 (1.50 log units). The second is the more potent here.

First: Cc1n[nH]c(C)c1CC(=O)NCc1ccc(F)c(C(F)(F)F)c1
Second: Cc1n[nH]c(C)c1CC(=O)NCc1ccc(C(F)(F)F)cc1
The pIC50 of the first is 0.90 log units higher: 7.30 for the first, 6.40 for the second.

Compared with Cc1noc(C)c1CC(=O)NCc1ccc(Cl)c(Cl)c1, Cc1noc(C)c1CC(=O)NCc1ccc(Cl)c(C(F)(F)F)c1 is 0.30 log units higher in pIC50: 6.50 for the first, 6.80 for the second.

Cc1cccc(Cl)c1CNC(=O)Cc1c(C)noc1C and Cc1noc(C)c1CC(=O)NCc1cccc(Cl)c1C are the same in pIC50: 7.60 for the first, 7.60 for the second.

Compared with Cc1noc(C)c1CC(=O)NCc1cccc(F)c1C, Cc1cccc(CNC(=O)Cc2c(C)noc2C)c1C is 0.70 log units higher in pIC50: 6.00 for the first, 6.70 for the second. The second is the more potent here.

First: Cc1ccc(Cl)c(CNC(=O)Cc2c(C)n[nH]c2C)c1F
Second: Cc1ccc(F)c(CNC(=O)Cc2c(C)n[nH]c2C)c1Cl
The pIC50 of the first is 0.90 log units lower: 6.20 for the first, 7.10 for the second.

Compared with Cc1noc(C)c1CC(=O)NCc1ccc(Cl)cc1, Cc1cc(Cl)ccc1CNC(=O)Cc1c(C)noc1C is 1.50 log units higher in pIC50: 6.10 for the first, 7.60 for the second.

Going from Cc1n[nH]c(C)c1CC(=O)NCc1c(F)cccc1Cl to Cc1n[nH]c(C)c1CC(=O)NCc1ccccc1Br, the pIC50 falls from 6.80 to 6.60 (0.20 log units). The first is the more potent here.

Going from Cc1noc(C)c1CC(=O)NCc1ccc(F)cc1F to Cc1noc(C)c1CC(=O)NCc1ccc(F)cc1Br, the pIC50 rises from 6.30 to 7.30 (1.00 log units). The second is the more potent here.

Cc1ccc(F)c(CNC(=O)Cc2c(C)noc2C)c1Cl and Cc1ccc(CNC(=O)Cc2c(C)noc2C)c(F)c1 are within 0.2 log units of each other in pIC50: 6.70 for the first, 6.80 for the second.

First: Cc1n[nH]c(C(F)(F)F)c1CC(=O)NCc1ccc(F)c(F)c1Cl
Second: Cc1n[nH]c(C(F)(F)F)c1CC(=O)NCc1cccc(C(F)(F)F)c1Cl
The pIC50 of the first is 0.30 log units lower: 8.30 for the first, 8.60 for the second. The second is the more potent here.

First: CCc1n[nH]c(CC)c1CC(=O)NCc1ccc(F)c(F)c1F
Second: CC(C)c1n[nH]c(C(C)C)c1CC(=O)NCc1ccc(F)c(F)c1F
The pIC50 of the first is 0.70 log units higher: 7.50 for the first, 6.80 for the second. The first is the more potent here.

Going from Cc1ccccc1CNC(=O)Cc1c(C)noc1C to Cc1ccc(CNC(=O)Cc2c(C)n[nH]c2C)c(C)c1, the pIC50 rises from 6.30 to 6.80 (0.50 log units).
